Measurements from US5620958A, “Bradykinin antagonists” (Coretech, Inc., priority 1994, dated 1997).
Numbered stars: 1 amine (or outer) side, 2 acyl side, 3 side chain; on linkers, the order of the positions; unused ones are H or OH. Bridge positions count the residues as written; N and C are the ends. Square brackets hold non-standard residues; d marks the D form. Peptide text beside a SMILES is read from it. I, II: the chains in the order shown. BMH = O=C1CC([*:1])C(=O)N1CCCCCCN1C(=O)CC([*:2])C1=O; Oic = O=C(O)[C@@H]1C[C@@H]2CCCC[C@@H]2N1; Hyp = O=C(O)[C@@H]1C[C@@H](O)CN1; dTic = O=C(O)[C@H]1Cc2ccccc2CN1

Columns and labels:
[1] = molecular target: T1, BK2 receptor (Rattus norvegicus, UniProt P25023); assay: cell-based
T1 sequence (P25023 1-396): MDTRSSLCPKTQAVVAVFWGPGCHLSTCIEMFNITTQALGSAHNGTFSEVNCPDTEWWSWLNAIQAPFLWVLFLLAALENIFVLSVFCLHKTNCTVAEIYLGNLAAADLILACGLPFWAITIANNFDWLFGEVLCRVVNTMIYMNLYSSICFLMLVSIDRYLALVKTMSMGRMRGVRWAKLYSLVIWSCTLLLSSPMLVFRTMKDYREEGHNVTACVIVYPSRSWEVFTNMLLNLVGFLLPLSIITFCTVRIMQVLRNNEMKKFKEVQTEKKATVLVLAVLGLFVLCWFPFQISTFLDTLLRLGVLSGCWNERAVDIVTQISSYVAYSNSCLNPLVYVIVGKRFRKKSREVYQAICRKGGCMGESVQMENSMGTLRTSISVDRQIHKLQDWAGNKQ

[2] = molecular target: T2, BK1 receptor (Oryctolagus cuniculus, UniProt P48748); assay: blood pressure response to BK1 agonist in LPS-pretreated rabbits; type: in vivo, rabbit; conditions: for OBSERVED ANTAGONIST ACTIVITY BK1: rabbits given LPS (10 μg) 20 hours before
T2 construct: when administered to an intact animal; from tissue; host or cells: whole rabbit (systemic arterial blood pressure), LPS-pretreated
T2 sequence (P48748 1-352): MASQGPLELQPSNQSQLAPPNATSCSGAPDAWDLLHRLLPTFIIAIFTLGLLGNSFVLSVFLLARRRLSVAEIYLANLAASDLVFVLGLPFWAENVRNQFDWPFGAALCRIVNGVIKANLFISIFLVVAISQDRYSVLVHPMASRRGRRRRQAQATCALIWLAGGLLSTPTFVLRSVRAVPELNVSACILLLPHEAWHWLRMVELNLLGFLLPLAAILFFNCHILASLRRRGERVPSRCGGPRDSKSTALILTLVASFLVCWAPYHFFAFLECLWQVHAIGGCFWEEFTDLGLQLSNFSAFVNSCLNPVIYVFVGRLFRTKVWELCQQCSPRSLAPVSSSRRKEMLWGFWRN

[3] = molecular target: T3, BK2 receptor (Oryctolagus cuniculus, UniProt Q28642); assay: blood pressure response to BK2 agonist in LPS-pretreated rabbits; type: in vivo, rabbit; design: key to OBSERVED ANTAGONIST ACTIVITY BK2: +: indicates complete blockade of the blood pressure response to the appropriate agonist; +/-: indicates partial blockade; -: indicates no observable effect at the dose indicated; conditions: for OBSERVED ANTAGONIST ACTIVITY BK2: rabbits given LPS (10 μg) 20 hours before
T3 construct: when administered to an intact animal; from tissue; host or cells: whole rabbit (systemic arterial blood pressure), LPS-pretreated
T3 sequence (Q28642 1-367): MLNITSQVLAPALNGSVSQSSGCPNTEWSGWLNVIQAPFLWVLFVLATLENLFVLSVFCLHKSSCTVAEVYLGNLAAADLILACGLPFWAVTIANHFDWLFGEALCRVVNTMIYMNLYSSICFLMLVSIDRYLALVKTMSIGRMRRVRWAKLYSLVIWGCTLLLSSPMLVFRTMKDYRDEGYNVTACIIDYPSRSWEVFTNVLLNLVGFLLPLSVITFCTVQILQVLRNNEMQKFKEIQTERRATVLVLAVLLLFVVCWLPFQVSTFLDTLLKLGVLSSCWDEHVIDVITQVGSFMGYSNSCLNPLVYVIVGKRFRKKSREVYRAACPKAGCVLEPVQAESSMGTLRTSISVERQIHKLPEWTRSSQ

[4] = molecular target: T2, BK1 receptor; assay: rabbit aorta in vitro, reversal of des-Arg^9 -BK contraction; type: cell-based; conditions: for IC50: negative log of molar concentration
[5] = molecular target: T1, BK2 receptor
[6] = molecular target: T4, BK2 receptor (Cavia porcellus, UniProt O70526); assay: guinea-pig ileum (GPI) in vitro, antagonism of BK; type: cell-based; conditions: Table B; read-out: pA2 GUINEA PIG ILEUM (converted)
T4 construct: tested for activity on guinea pig ileum in vitro on the standard tissue bath/strain gauge system; from tissue; host or cells: guinea pig ileum
T4 sequence (O70526 1-372): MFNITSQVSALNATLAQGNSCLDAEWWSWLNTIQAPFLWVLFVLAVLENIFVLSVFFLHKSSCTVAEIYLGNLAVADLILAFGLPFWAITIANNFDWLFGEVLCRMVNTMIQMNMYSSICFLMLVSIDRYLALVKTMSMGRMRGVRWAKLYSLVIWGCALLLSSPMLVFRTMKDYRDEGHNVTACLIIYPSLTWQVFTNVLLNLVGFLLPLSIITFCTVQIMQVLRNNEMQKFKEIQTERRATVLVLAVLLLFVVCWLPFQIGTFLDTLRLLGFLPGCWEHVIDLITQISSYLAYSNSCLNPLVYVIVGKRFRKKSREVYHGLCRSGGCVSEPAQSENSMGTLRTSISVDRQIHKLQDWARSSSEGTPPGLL
Method: Thus, in vitro studies were performed on standard assay systems, namely, guinea-pig ileum (GPI), rat uterus (RU) and rabbit jugular vein (RJV). […] The potency of each compound was assessed as a pA2 value according to the method of Arunlakshana & Schild, Br. J. Pharmacol. Chemother., 1.4:48-58 (1959). The pA2 can be defined as the negative logarithm of the molar concentration of the antagonist in the presence of which the potency of the agonist is reduced two-fold, i.e., twice the amount of agonist is required to produce a given response in the presence of, than in the absence of, the antagonist. A high potency of antagonism is indicated by a high pA2 value, i.e., a low concentration of antagonist is effective.
The percentage recovery (% Rec) was also determined for compounds with respect to each assay.
The various compounds identified in Table B below were prepared following the procedure of Example 1 with the Cys moiety introduced into the parent CP-0088 at the position indicated followed by reaction between the sulfhydryl group of the Cys residue and BMH to provide dimers as indicated. The Cys-modified monomers and the resultant dimers were tested for activity on guinea pig ileum in vitro on the standard tissue bath/strain gauge system as before.

[7] = molecular target: T5, NK1 receptor (Cavia porcellus, UniProt P30547); assay: guinea pig ileum assay of NK1 receptor activity against substance P; type: cell-based; conditions: Table O; read-out: NK1 : GPI pA2 (± s.e.m.) (converted)
T5 construct: a standard guinea pig ileum assay of NK1 receptor activity; from tissue; host or cells: guinea pig ileum
From the text: In order to illustrate the potential of blocking two different receptor populations with a single compound a consensus NK1 receptor antagonist (DArg-DPro-Lys-Pro-Gln-Asn-DPhe-Phe-DTrp-Leu-Nle) was synthesized. […] Once the activity of this reference ligand was established, a series of lysine containing monomers formed by the systematic substitution of a lysine residue sequentially through the reference peptide was synthesized.

[8] = FIG. 8c, rabbits after endotoxin pretreatment

T5 sequence (P30547 whole entry): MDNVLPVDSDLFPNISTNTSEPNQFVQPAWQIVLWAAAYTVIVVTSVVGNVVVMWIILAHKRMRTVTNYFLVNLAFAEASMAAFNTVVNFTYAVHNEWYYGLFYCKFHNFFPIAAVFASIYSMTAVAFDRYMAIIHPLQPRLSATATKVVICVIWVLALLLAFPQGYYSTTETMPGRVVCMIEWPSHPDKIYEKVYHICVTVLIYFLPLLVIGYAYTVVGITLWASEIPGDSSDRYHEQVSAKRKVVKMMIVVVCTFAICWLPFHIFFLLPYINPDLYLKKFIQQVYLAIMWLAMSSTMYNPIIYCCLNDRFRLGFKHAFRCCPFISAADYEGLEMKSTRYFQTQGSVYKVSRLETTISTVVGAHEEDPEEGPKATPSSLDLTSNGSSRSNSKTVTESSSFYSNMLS

Compound	Kb [1] [nM]	OBSERVED ANTAGONIST ACTIVITY BK1 ([2]; 1 μg kg^-1 min^-1)	OBSERVED ANTAGONIST ACTIVITY BK1 ([2]; 3 μg kg^-1 min^-1)	OBSERVED ANTAGONIST ACTIVITY BK1 ([2]; 10 μg kg^-1 min^-1)	OBSERVED ANTAGONIST ACTIVITY BK2 ([3]; 1 μg kg^-1 min^-1)	OBSERVED ANTAGONIST ACTIVITY BK2 ([3]; 3 μg kg^-1 min^-1)	OBSERVED ANTAGONIST ACTIVITY BK2 ([3]; 10 μg kg^-1 min^-1)	IC50 ([4]; Table L) [nM]	also measured
N=C(N)NCCC[C@@H](N)C(=O)N[C@@H](CCCNC(=N)N)C(=O)N1CCC[C@H]1C(=O)N1C[C@H](O)C[C@H]1C(=O)NCC(=O)N[C@@H](Cc1ccccc1)C(=O)N[C@@H](CSC1CC(=O)N(CCCCCCN2C(=O)CC(SC[C@H](NC(=O)[C@H](N)CCCNC(=N)N)C(=O)N3CCC[C@H]3C(=O)N3C[C@H](O)C[C@H]3C(=O)NCC(=O)N[C@@H](Cc3ccccc3)C(=O)N[C@@H](CO)C(=O)N3Cc4ccccc4C[C@@H]3C(=O)N3[C@H](C(=O)O)C[C@@H]4CCCC[C@@H]43)C2=O)C1=O)C(=O)N1Cc2ccccc2C[C@@H]1C(=O)N1[C@H](C(=O)N[C@@H](CCCNC(=N)N)C(=O)O)C[C@@H]2CCCC[C@@H]21 (some centres unmarked) [CP-0365] (I: H-[dR]RP[Hyp]GFC[dTic][Oic]R-OH / II: H-[dR]CP[Hyp]GFS[dTic][Oic]-OH; linker I:7-II:2 via BMH; N-terminus and C-terminus assumed)	3.98	-	+	+	-	+	+	39.8	
CC(C)C[C@H](NC(=O)[C@@H]1CCCN1C(=O)[C@H](CO)NC(=O)[C@H](Cc1cccs1)NC(=O)CNC(=O)[C@@H]1CCCN1C(=O)[C@@H]1CCCN1C(=O)[C@H](CSC1CC(=O)N(CCCCCCN2C(=O)CC(SC[C@H](NC(=O)[C@H](Cc3ccccc3)NC(=O)CNC(=O)[C@@H]3C[C@@H](O)CN3C(=O)[C@@H]3CCCN3C(=O)[C@H](CCCNC(=N)N)NC(=O)[C@H](N)CCCNC(=N)N)C(=O)N[C@H](Cc3ccccc3)C(=O)N[C@@H](CC(C)C)C(=O)N[C@@H](CCCNC(=N)N)C(=O)O)C2=O)C1=O)NC(=O)[C@@H](N)CCCCN)C(=O)O (some centres unmarked) [CP-0383] (HELM PEPTIDE1{[dR].R.P.[Hyp].G.F.C.[dF].L.R}|PEPTIDE2{K.C.P.P.G.[O=C([C@H](Cc1cccs1)N[*:1])[*:2]].S.P.L}|CHEM1{[O=C1CC([*:1])C(=O)N1CCCCCCN1C(=O)CC([*:2])C1=O]}$PEPTIDE1,CHEM1,7:R3-1:R1|PEPTIDE2,CHEM1,2:R3-1:R2$$$V2.0)								15.8	BK1 antagonism [4]: BK1 antagonism was retained; activity in the rat uterus BK2 receptor system [5]: substantial partial agonism; BK2 Rat Uterus pA2 ([5]; Table L): Agonist
CC(C)C[C@H](NC(=O)[C@@H]1CCCN1C(=O)[C@H](CO)NC(=O)[C@H](Cc1ccccc1)NC(=O)CNC(=O)[C@@H]1C[C@@H](O)CN1C(=O)[C@@H]1CCCN1C(=O)[C@H](CS)NC(=O)[C@H](N)CCCNC(=N)N)C(=O)O [CP-0362] (HELM PEPTIDE1{[dR].C.P.[Hyp].G.F.S.P.L}$$$$V2.0; N-terminus and C-terminus assumed)									IC50 ([4]; Table K): 1000 nM; BK2 (RAT UTERUS) pA2 ([5]; Table K): Inactive
CC(C)C[C@H](NC(=O)[C@@H](Cc1ccccc1)NC(=O)[C@H](CO)NC(=O)[C@H](Cc1ccccc1)NC(=O)CNC(=O)[C@@H]1C[C@@H](O)CN1C(=O)[C@@H]1CCCN1C(=O)[C@H](CS)NC(=O)[C@H](N)CCCNC(=N)N)C(=O)N[C@@H](CCCNC(=N)N)C(=O)O [CP-0141] (HELM PEPTIDE1{[dR].C.P.[Hyp].G.F.S.[dF].L.R}$$$$V2.0)	> 1000								Kb [6]: 794 nM; % REC MONOMER ([5]; Table C, rat uterus): 100%
CC(C)C[C@H](NC(=O)[C@@H]1CCCN1C(=O)[C@H](CO)NC(=O)[C@H](Cc1ccccc1)NC(=O)CNC(=O)[C@@H]1C[C@@H](O)CN1C(=O)[C@@H]1CCCN1C(=O)[C@H](CSC1CC(=O)N(CCCCCCN2C(=O)CC(SC[C@H](NC(=O)[C@H](Cc3ccccc3)NC(=O)CNC(=O)[C@@H]3C[C@@H](O)CN3C(=O)[C@@H]3CCCN3C(=O)[C@H](CCCNC(=N)N)NC(=O)[C@H](N)CCCNC(=N)N)C(=O)N[C@H](Cc3ccccc3)C(=O)N[C@@H](CC(C)C)C(=O)N[C@@H](CCCNC(=N)N)C(=O)O)C2=O)C1=O)NC(=O)[C@H](N)CCCNC(=N)N)C(=O)O (some centres unmarked) [CP-0364] (HELM PEPTIDE1{[dR].R.P.[Hyp].G.F.C.[dF].L.R}|PEPTIDE2{[dR].C.P.[Hyp].G.F.S.P.L}|CHEM1{[O=C1CC([*:1])C(=O)N1CCCCCCN1C(=O)CC([*:2])C1=O]}$PEPTIDE1,CHEM1,7:R3-1:R1|PEPTIDE2,CHEM1,2:R3-1:R2$$$V2.0; N-terminus and C-terminus assumed)	5.01	+	+	+	+	+	+	31.6	block of BK1-mediated hypotensive response [2, 8]: capable of blocking the response profile to both agonists simultaneously; block of BK2-mediated hypotensive response [3, 8]: capable of blocking the response profile to both agonists simultaneously
CCCC[C@H](NC(=O)[C@H](CC(C)C)NC(=O)[C@@H](Cc1c[nH]c2ccccc12)NC(=O)[C@H](Cc1ccccc1)NC(=O)[C@@H](Cc1ccccc1)NC(=O)[C@H](CC(N)=O)NC(=O)[C@H](CCC(N)=O)NC(=O)[C@@H]1CCCN1C(=O)[C@H](CCCCN)NC(=O)[C@H](CCCCNC(=O)CCCCCN1C(=O)CC(SC[C@H](NC(=O)[C@H](Cc2ccccc2)NC(=O)CNC(=O)[C@@H]2C[C@@H](O)CN2C(=O)[C@@H]2CCCN2C(=O)[C@H](CCCNC(=N)N)NC(=O)[C@H](N)CCCNC(=N)N)C(=O)N[C@H](Cc2ccccc2)C(=O)N[C@@H](CC(C)C)C(=O)N[C@@H](CCCNC(=N)N)C(=O)O)C1=O)NC(=O)[C@H](N)CCCNC(=N)N)C(N)=O (some centres unmarked) [CP-0391] (HELM PEPTIDE1{[dR].K.K.P.Q.N.[dF].F.[dW].L.[Nle].[am]}|PEPTIDE2{[dR].R.P.[Hyp].G.F.C.[dF].L.R}|CHEM1{[O=C1CC([*:2])C(=O)N1CCCCCC(=O)[*:1]]}$PEPTIDE1,CHEM1,2:R3-1:R1|PEPTIDE2,CHEM1,7:R3-1:R2$$$V2.0)	79.4								Kb [7]: 10000 nM
